Reference: patent US20260231939A1, “ARTHROPOD CONTROL COMPOSITIONS” (Firmenich SA, priority 2022, published 2026)
Like-named read-outs stand apart in the source and are kept apart here.

How the values were obtained:
[1] = system: Ae. aegypti; experiment: Arm-in-cage test on human volunteers; format: in vivo, Aedes aegypti; settings: for Arm-in-cage repellence / repellence efficacy compared with saturated 6-pentyloxan-2-one: 20% in ethanol; for repellence efficacy compared with saturated 6-pentyloxan-2-one: Arm-in-Cage, paired t-test, FIG. 5
Protocol: (§1) The Arm in the box method was adapted from the WHO Guidelines for efficacy testing of mosquito repellents for human skin (WHO/CDS/NTD/WHOPES/2009.4) and/or based on EU biocide testing guidelines (Guidance on the Biocidal Products Regulation. Vol. II Efficacy—Assessment and Evaluation (Parts B+C), v. 4.0. December 2021). The readiness of 200 hungry female mosquitoes Ae. aegypti or 50 An. gambiae to probe is assessed by inserting the untreated arm of human volunteers into the cage (40×40×40 cm) for 30 seconds (negative control) in order to determine probing activity. Then, the product is applied onto the skin of the forearm of the human volunteer (1 mL per 600 cm^2) and after 5 minutes (Ae. aegypti) or 30 minutes (An. gambiae), this arm is inserted into the cage and exposed for 3 minutes. The assay take place in temperature (27±2° C.) and humidity (80±10% RH) regulated room on three different human volunteers.

[2] = system: Aedes aegypti; experiment: Warm Body assay, mosquito landings on the baited warm body; format: in vivo; settings: for pest or weed control at 16 µg/mL / pest or weed control at 400 µg/mL / pest or weed control at 10000 µg/mL: Aedes aegypti, read-out: Percentage of repellence of mosquitoes landing on the warm body; for repellence efficacy compared with the saturated counterpart: Warm Body assay, paired t-test where given
Protocol: (§2) The controlling effect according to the present invention was assessed using an adapted Warm Body assay as defined in Kröber T, Kessler S, Frei J, Bourquin M, Guerin P M. 2010. J Am Mosq Control Assoc. 26:381-386. In this in-vitro assay the number of mosquito landing on a warm body, simulating an attractive host treated with the tested stimuli, was measured in order to assess the repellence effect.
The published protocol has been adapted as the switch from Anopheles gambiae to Ae. aegypti led to a decrease of mosquitoes placed in the tested cage due to the size difference (i.e. 30 mosquitoes instead of 50) and to an increase of lighting since Ae. aegypti is a diurnal mosquitoes (i.e. 150 lux instead of 4 lux).
(§3) On the sandblasted glass Petri dish covering the warm body (28.3 cm^2), 100 μL of the compounds diluted at different concentrations in ethanol was applied. The number of mosquito landing on the warm body was counted for each stimulus. Number of landings on pure ethanol (solvent) control treatment was used to normalize the data and calculate the percentage of repellence.

[3] = system: An. gambiae; experiment: Arm-in-cage test on human volunteers; format: in vivo, Anopheles gambiae; settings: for time during which protection is 100%, i.e. no mosquito landing / Arm-in-cage repellence: 20% in ethanol; for time during which mosquito protection / repellence is >90%: 20% solution in ethanol; for repellent effect: dilution of 5%
Protocol: as §1

[4] = system: Anopheles gambiae; experiment: Warm Body assay, mosquito landings on the baited warm body; format: in vivo; settings: for repellence efficacy compared with the saturated counterpart: Warm Body assay, paired t-test, FIG. 4
Protocol: Anopheles gambiae is also a model organism as it is anthropophilic and transmits malaria.
as §2, with “effect. […]” for “effect.”
as §3

[5] = system: Ixodes ricinus; experiment: Warm Plate Assay for ticks; settings: for lower dose at which 100% of repellent efficacy is already reached: in vivo
[6] = γ-lactones, 0.016 mg/mL in ethanol
[7] = γ-lactones, 0.4 mg/mL in ethanol
[8] = γ-lactones, 10 mg/mL in ethanol
[9] = unsaturated δ-lactones at 20%, 30 min
[10] = unsaturated δ-lactones at 20%, 1 h
[11] = unsaturated δ-lactones at 20%, 2 h
[12] = unsaturated δ-lactones at 20%, 3 h
[13] = unsaturated δ-lactones at 20%, 4 h
[14] = unsaturated δ-lactones at 20%, 5 h
[15] = unsaturated δ-lactones at 20%, 6 h
[16] = unsaturated δ-lactones at 20%, 7 h

CC1CCC2C(C1)OC(=O)C2C (stereo not shown) [3,6-dimethyl-3a,4,5,6,7,7a-hexahydro-3H-1-benzofuran-2-one]
mosquitoes repelled for at least 1 h ([1]; at 20%): > 95% | Arm-in-cage repellence, mean of three volunteers ([1]; at 20%, 30 min): 100% ± | Arm-in-cage repellence, mean of three volunteers ([1]; at 20%, 1 h): 99.93% ± | Arm-in-cage repellence, mean of three volunteers ([1]; at 20%, 2 h): 92.21% ± | Arm-in-cage repellence, mean of three volunteers ([1]; at 20%, 3 h): 86.52% ± | Arm-in-cage repellence, mean of three volunteers ([1]; at 20%, 4 h): 66.02% ± | pest or weed control at 16 µg/mL ([2]; more complex lactones (types A, B, C), 0.016 mg/mL): 0% | pest or weed control at 400 µg/mL ([2]; more complex lactones (types A, B, C), 0.4 mg/mL): 90% | pest or weed control at 10000 µg/mL ([2]; more complex lactones (types A, B, C), 10 mg/mL): 98% | mosquitoes repelled for at least 1 h ([3]; at 20%): > 95% | Arm-in-cage repellence, mean of three volunteers ([3]; at 20%, 30 min): 100% ± | Arm-in-cage repellence, mean of three volunteers ([3]; at 20%, 1 h): 93.7% ± | Arm-in-cage repellence, mean of three volunteers ([3]; at 20%, 2 h): 67.05% ±

CCC=CCCC1CCC(=O)O1 (stereo not shown) [5-hex-3-enyloxolan-2-one]
Arm-in-cage repellence ([1]; 5 min post application): 98.5% ± | Arm-in-cage repellence ([1]; 1 h post application): 97.0% ± | Arm-in-cage repellence ([1]; 2 h post application): 93.0% ± | Arm-in-cage repellence ([1]; 3 h post application): 88.3% ± | Arm-in-cage repellence ([1]; 4 h post application): 79.5% ± | time during which mosquito protection is >90% ([1]; 20% solution in ethanol): 2 h | pest or weed control at 16 µg/mL [2, 6]: 0% | pest or weed control at 400 µg/mL [2, 7]: 81% | pest or weed control at 10000 µg/mL [2, 8]: 95% | repellence efficacy compared with the saturated counterpart [2]: significantly higher | Percentage of repellence of mosquitoes landing on the warm body ([4]; 0.08 mg/mL): 12% | Percentage of repellence of mosquitoes landing on the warm body ([4]; 0.178 mg/mL): 38% | Percentage of repellence of mosquitoes landing on the warm body ([4]; 0.267 mg/mL): 95% | Percentage of repellence of mosquitoes landing on the warm body ([4]; 0.598 mg/mL): 93% | Percentage of repellence of mosquitoes landing on the warm body ([4]; 0.89 mg/mL): 100% | Percentage of repellence of mosquitoes landing on the warm body ([4]; 2 mg/mL): 100% | Percentage of repellence of mosquitoes landing on the warm body ([4]; 4.47 mg/mL): 100% | Percentage of repellence of mosquitoes landing on the warm body ([4]; 10 mg/mL): 100% | Percentage of repellence of ticks on the warm plate ([5]; 0.40 mg/mL): 17% | Percentage of repellence of ticks on the warm plate ([5]; 10 mg/mL): 100% | time during which protection is 100%, i.e. no mosquito landing [3]: 4 h | Arm-in-cage repellence ([3]; 30 min post application): 100% ± | Arm-in-cage repellence ([3]; 1 h post application): 100% ± | Arm-in-cage repellence ([3]; 2 h post application): 100% ± | Arm-in-cage repellence ([3]; 3 h post application): 100% ± | Arm-in-cage repellence ([3]; 4 h post application): 100% ± | Arm-in-cage repellence ([3]; 5 h post application): 97.85% ± | Arm-in-cage repellence ([3]; 6 h post application): 80.07% ± | time during which mosquito protection / repellence is >90% [3]: 5 h

C=CCCCCC1CCC(=O)O1 (stereo not shown) [5-hex-5-enyloxolan-2-one]
pest or weed control at 16 µg/mL [2, 6]: 14% | pest or weed control at 400 µg/mL [2, 7]: 89% | pest or weed control at 10000 µg/mL [2, 8]: 100% | Percentage of repellence of mosquitoes landing on the warm body ([4]; 0.08 mg/mL): 65% | Percentage of repellence of mosquitoes landing on the warm body ([4]; 0.178 mg/mL): 72% | Percentage of repellence of mosquitoes landing on the warm body ([4]; 0.267 mg/mL): 73% | Percentage of repellence of mosquitoes landing on the warm body ([4]; 0.598 mg/mL): 88% | Percentage of repellence of mosquitoes landing on the warm body ([4]; 0.89 mg/mL): 98% | Percentage of repellence of mosquitoes landing on the warm body ([4]; 2 mg/mL): 100% | Percentage of repellence of mosquitoes landing on the warm body ([4]; 4.47 mg/mL): 100% | Percentage of repellence of mosquitoes landing on the warm body ([4]; 10 mg/mL): 100%

CCC=CCC1CCCC(=O)O1 (stereo not shown) [6-pent-2-enyloxan-2-one]
repellence efficacy compared with saturated 6-pentyloxan-2-one [1]: more efficient | repellence efficacy compared with the saturated counterpart [2]: significantly more efficient | repellence efficacy compared with the saturated counterpart [4]: significantly more efficient | Percentage of repellence of ticks on the warm plate ([5]; 0.08 mg/mL): 33% | Percentage of repellence of ticks on the warm plate ([5]; 0.18 mg/mL): 42% | Percentage of repellence of ticks on the warm plate ([5]; 0.40 mg/mL): 75% | Percentage of repellence of ticks on the warm plate ([5]; 0.89 mg/mL): 100% | Percentage of repellence of ticks on the warm plate ([5]; 2 mg/mL): 100% | Percentage of repellence of ticks on the warm plate ([5]; 10 mg/mL): 100% | lower dose at which 100% of repellent efficacy is already reached [5]: 0.089% | time during which protection is 100%, i.e. no mosquito landing [3]: 4 h | time during which mosquito protection / repellence is >90% [3]: 6 h | repellent effect ([3]; 30 min after application): 100% | repellent effect ([3]; 1 h after application): 99.2% | repellent effect ([3]; 2 h after application): 67.2% | Arm-in-cage repellence, mean of three volunteers [3, 9]: 100% ± | Arm-in-cage repellence, mean of three volunteers [3, 10]: 100% ± | Arm-in-cage repellence, mean of three volunteers [3, 11]: 100% ± | Arm-in-cage repellence, mean of three volunteers [3, 12]: 100% ± | Arm-in-cage repellence, mean of three volunteers [3, 13]: 100% ± | Arm-in-cage repellence, mean of three volunteers [3, 14]: 99.2% ± | Arm-in-cage repellence, mean of three volunteers [3, 15]: 92.3% ± | Arm-in-cage repellence, mean of three volunteers [3, 16]: 87.8% ±

CC=CCCC1CCCC(=O)O1 (stereo not shown) [6-pent-3-enyloxan-2-one]
repellence efficacy compared with saturated 6-pentyloxan-2-one [1]: more efficient | pest or weed control at 16 µg/mL ([2]; δ-lactones, 0.016 mg/mL): 20% | pest or weed control at 400 µg/mL ([2]; δ-lactones, 0.4 mg/mL): 98% | pest or weed control at 10000 µg/mL ([2]; δ-lactones, 10 mg/mL): 100% | repellence efficacy compared with the saturated counterpart [2]: significantly more efficient | repellence efficacy compared with the saturated counterpart [4]: significantly more efficient | Percentage of repellence of ticks on the warm plate ([5]; 0.40 mg/mL): 83% | Percentage of repellence of ticks on the warm plate ([5]; 2 mg/mL): 100% | Percentage of repellence of ticks on the warm plate ([5]; 10 mg/mL): 100% | lower dose at which 100% of repellent efficacy is already reached [5]: 0.2% | time during which protection is 100%, i.e. no mosquito landing [3]: 3 h | time during which mosquito protection / repellence is >90% [3]: 8 h | Arm-in-cage repellence, mean of three volunteers [3, 9]: 100% ± | Arm-in-cage repellence, mean of three volunteers [3, 10]: 100% ± | Arm-in-cage repellence, mean of three volunteers [3, 11]: 100% ± | Arm-in-cage repellence, mean of three volunteers [3, 12]: 100% ± | Arm-in-cage repellence, mean of three volunteers [3, 13]: 99.0% ± | Arm-in-cage repellence, mean of three volunteers [3, 14]: 98.4% ± | Arm-in-cage repellence, mean of three volunteers [3, 15]: 98.3% ± | Arm-in-cage repellence, mean of three volunteers [3, 16]: 94.9% ± | Arm-in-cage repellence, mean of three volunteers ([3]; unsaturated δ-lactones at 20%, 8 h): 94.7% ±

CCC=CC[C@@H]1CCCC(=O)O1 [(6S)-6-pent-2-enyloxan-2-one]
pest or weed control at 16 µg/mL ([2]; δ-lactones, 0.016 mg/mL): 73% | pest or weed control at 400 µg/mL ([2]; δ-lactones, 0.4 mg/mL): 96% | pest or weed control at 10000 µg/mL ([2]; δ-lactones, 10 mg/mL): 96%

C=C/C=C/C1C(=O)OC1CCCCC (stereo not shown) [(E)-3-buta-1,3-dienyl-4-pentyloxetan-2-one]
pest or weed control at 16 µg/mL ([2]; β- and ε-lactones, 0.016 mg/mL): 71% | pest or weed control at 400 µg/mL ([2]; β- and ε-lactones, 0.4 mg/mL): 82% | pest or weed control at 10000 µg/mL ([2]; β- and ε-lactones, 10 mg/mL): 100%

C=C/C=C\C1C(=O)OC1CCCCC (stereo not shown) [(Z)-3-buta-1,3-dienyl-4-pentyloxetan-2-one]
pest or weed control at 16 µg/mL ([2]; β- and ε-lactones, 0.016 mg/mL): 64% | pest or weed control at 400 µg/mL ([2]; β- and ε-lactones, 0.4 mg/mL): 87% | pest or weed control at 10000 µg/mL ([2]; β- and ε-lactones, 10 mg/mL): 95%
